# Measurements from patent US9796725B2, “Pyrazolopyrimidinyl inhibitors of ubiquitin-activating enzyme” (Millennium Pharmaceuticals, Inc., priority 2012, dated 2017).
# What was measured:
# [1] = test system: mouse acute myeloid leukemia (AML model); conditions: cited from earlier work
# recombinant human UAE = recombinant human UAE (Homo sapiens (Human), UniProt P22314); test: Ubiquitin Activating Enzyme (UAE) HTRF Assay
# recombinant human UAE, sequence (P22314 whole entry): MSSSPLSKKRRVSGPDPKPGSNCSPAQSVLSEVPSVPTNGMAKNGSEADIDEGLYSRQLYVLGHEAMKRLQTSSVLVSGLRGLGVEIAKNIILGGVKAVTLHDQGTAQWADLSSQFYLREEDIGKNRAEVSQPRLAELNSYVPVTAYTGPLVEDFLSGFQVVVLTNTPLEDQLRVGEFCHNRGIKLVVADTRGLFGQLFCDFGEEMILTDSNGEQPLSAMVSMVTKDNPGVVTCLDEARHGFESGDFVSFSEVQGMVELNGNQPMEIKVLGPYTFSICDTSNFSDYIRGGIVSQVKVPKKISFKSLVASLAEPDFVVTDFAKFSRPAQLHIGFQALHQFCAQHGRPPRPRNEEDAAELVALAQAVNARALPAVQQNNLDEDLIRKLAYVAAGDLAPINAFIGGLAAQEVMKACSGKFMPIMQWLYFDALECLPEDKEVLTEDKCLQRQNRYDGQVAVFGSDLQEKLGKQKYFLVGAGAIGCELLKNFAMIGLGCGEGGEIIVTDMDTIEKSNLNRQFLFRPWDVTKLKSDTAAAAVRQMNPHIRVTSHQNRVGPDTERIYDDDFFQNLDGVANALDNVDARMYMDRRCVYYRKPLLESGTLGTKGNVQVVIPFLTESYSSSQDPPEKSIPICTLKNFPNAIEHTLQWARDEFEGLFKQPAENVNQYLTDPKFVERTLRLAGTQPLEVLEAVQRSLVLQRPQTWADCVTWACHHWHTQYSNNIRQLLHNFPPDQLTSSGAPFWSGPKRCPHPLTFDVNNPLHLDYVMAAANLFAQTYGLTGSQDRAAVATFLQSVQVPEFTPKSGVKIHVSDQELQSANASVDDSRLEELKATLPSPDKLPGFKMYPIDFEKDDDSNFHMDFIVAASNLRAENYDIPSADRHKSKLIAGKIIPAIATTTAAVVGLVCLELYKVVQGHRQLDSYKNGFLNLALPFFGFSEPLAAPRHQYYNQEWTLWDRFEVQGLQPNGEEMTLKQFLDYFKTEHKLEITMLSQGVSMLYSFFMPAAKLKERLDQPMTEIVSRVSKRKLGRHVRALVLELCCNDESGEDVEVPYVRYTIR
# Procedure: After incubation for 120 minutes, quantification of the FRET is performed on the Pherostar (BMG).
# For compounds whose values are marked with an asterisk (*), mouse UAE was used. For all other compounds, human UAE was used.
SMILES,anti-tumor activity [1],IC50 (recombinant human UAE) [nM]
O=C1NN(c2ccc(F)c(Cl)c2)C(=O)/C1=C\c1ccc([N+](=O)[O-])o1 [PYZD-4409],demonstrated anti-tumor activity,–
"NS(=O)(=O)OC[C@H]1C[C@@H](Nc2ccnc3cc(-c4cccc5cc(C(=O)O)ccc45)nn23)[C@H](O)[C@@H]1O (relative stereo) [Compound I-099, (rac)-rel-5-[7-({(1R,2S,3R,4R)-2,3-dihydroxy-4-[(sulfamoyloxy)methyl]cyclopentyl}amino)pyrazolo[1,5-a]pyrimidin-2-y1]-2-naphthoic acid]",–,< 10
"COc1ccc(C(C)(C)C)cc1-c1cc2nccc(N[C@@H]3C[C@H](COS(N)(=O)=O)[C@@H](O)[C@H]3O)n2n1 (racemic) [Compound I-063, (rac)-((1R,2R,3S,4R)-4-{[2-(5-tert-butyl-2-methoxyphenyl)pyrazolo[1,5-a]pyrimidin-7-yl]amino}-2,3-dihydroxycyclopentyl)methyl rel-sulfamate]",–,< 10
